Test results published in patent publication EP4810052A2, “HCRHR2 SELECTIVE POLYPEPTIDES” (Gubra A/S, priority 2023, dated 2026).
Entries after “also recorded” stand apart in the source; their conditions may differ. Marks after values point to notes of the source that are not given here. Starred links: 1 amine or outer side, 2 acyl side, 3 side chain; linkers in the order of their positions; H or OH if unused. Non-standard residues stand in square brackets, D forms with d. Residues, ends and D or L forms follow the SMILES beside them. Groups on a side chain read outwards from the residue. *: point of attachment. C20 diacid = O=C(O)CCCCCCCCCCCCCCCCCCC(=O)*; γGlu = O=C(O)[C@H](CCC(=O)[*:2])N[*:1]; NMeI = CC[C@H](C)[C@H](NC)C(=O)O; Nle = CCCC[C@H](N)C(=O)O; AEEA = NCCOCCOCC(=O)O; Aib = CC(C)(N)C(=O)O

Experiments:
[1] = Body mass and body fat content in mouse model of diet-induced obesity (DIO); type: in vivo; settings: DIO mice; for relative body weight: 28 days, compared to vehicle; for Blood HbA1c / M. Gastrocnemius / M. Soleus / Body weight at termination / Fat mass change from baseline / Lean mass change from baseline / Relative body weight change at termination: Table 17 study; for Body weight at termination / Fat mass change from baseline / Lean mass change from baseline / Relative body weight change at termination: ± SEM
Experimental: SEQ ID NO: 3, SEQ ID NO: 6, SEQ ID NO: 238, SEQ ID NO: 16 and SEQ ID NO: 215 were assessed for their ability to reduce body mass and body fat content in a mouse model of diet-induced obesity (DIO).
Male C57BL/6JRj mice were obtained from JanVier (JanVier Labs, France) at 5 weeks of age. The animals were group-housed during obesity induction and then single housed 2 weeks prior to study start. They were housed under a 12/12 h dark-light cycle, light off at 3 PM. Room temperature was controlled to 22°C ± 1°C, with 60 % ± 20% humidity. For 22-23 weeks prior to treatment start and throughout the study, the animals had ad libitum access to high-fat diet (60% kcal fat, D12492, Research Diets) and tap water.
The animals were randomized according to lean mass (EchoMRI) and body weight. Animals were dosed subcutaneously […] for 30-32 days. In study 1, the animals were dosed with vehicle or SEQ ID NO: 3 (10, 30, 60 or 100 nmol/kg). In study 2, the animals were dosed with vehicle or SEQ ID NO: 6 (10 or 30 nmol/kg), SEQ ID NO: 238 (10 or 30 nmol/kg), SEQ ID NO: 16 (10 or 30 nmol/kg), SEQ ID NO: 215 (10 or 30 nmol/kg) or SEQ ID NO: 3 (30 nmol/kg).
Body weight and food intake were recorded daily until day 28 and body composition evaluated on day 26 using EchoMRI. At termination, blood for HbA1c analyses were collected and M. gastrocnemius and M. soleus were weighed.
Statistical significance was evaluated using One-way analysis of variance with Dunnett's multiple comparison test. P < 0.05 was considered statistically significant.

[2] = Dynamic Light Scattering (DLS) of peptide oligomerisation/particle formation; type: physicochemical; settings: for PD (%) / Rh (nm): average of three replica
Experimental: Samples were prepared by dissolving 800 nmol of each peptide in 400 µl 50 mM phosphate pH 8.0 to a concentration of 2000 µM (ca 10 mg/ml). After fully dissolution for 2 hours on a rocking table, samples were adjusted to pH 7.5 and filtrated through a 0.2 µm Whatman Anotop filter. Comparators were commercially available liraglutide drug product (Victoza®, Novo Nordisk) pH 8.2, and an aliquot of this drug product adjusted to pH 6.7. These samples were filtrated through a 0.02 µm Whatman Anotop filter.
Samples were pipetted as triplicate of 30 µl to an Aurora 384 well microtiter plate, which was centrifuged for 2 minutes at 2200 rpm and then sealed with a Thermo sealing tape 235307. DLS measurements were done in a Wyatt DynaPro platereader III with the following parameters:
The microtiter plate was incubated in a Grant-bio Thermo Shaker PHMP-4 at 40°C with 700 rpm continuous shaking before subsequent DLS measurements. Data analysis was done using Wyatt Dynamics software ver. 7.10.1.21.
Samples were prepared and measured as described in procedure. The hydrodynamic radii (Rh) and associated polydispersity (PD) resulting from cumulant analysis (assuming one species) are shown in the Table 8 as averages of three replica. T0 indicates the measurement at time zero after sample preparation; T5 indicates the measurements of five days of incubation as described above.

[3] = T0, time zero after sample preparation
[4] = T5, five days incubation at 40°C with continuous shaking

SMILES	relative body weight [1]	Blood HbA1c ([1]; 10 nmol/kg) [%]	M. Gastrocnemius ([1]; 10 nmol/kg)	M. Soleus ([1]; 10 nmol/kg) [g]	Body weight at termination ([1]; 10 nmol/kg) [g]	Fat mass change from baseline ([1]; 10 nmol/kg) [g]	Lean mass change from baseline ([1]; 10 nmol/kg) [g]	Relative body weight change at termination ([1]; 10 nmol/kg) [%]	Blood HbA1c ([1]; 30 nmol/kg) [%]	M. Gastrocnemius ([1]; 30 nmol/kg) [g]	M. Soleus ([1]; 30 nmol/kg) [g]	Body weight at termination ([1]; 30 nmol/kg) [g]	Fat mass change from baseline ([1]; 30 nmol/kg) [g]	Lean mass change from baseline ([1]; 30 nmol/kg) [g]	Relative body weight change at termination ([1]; 30 nmol/kg) [%]	PD (%) [2, 3] [%]	Rh (nm) [2, 3] [nm]	PD (%) [2, 4]	Rh (nm) [2, 4] [nm]	other results
CC[C@H](C)[C@H](NC)C(=O)N[C@H](C(=O)N[C@@H](CC(C)C)C(=O)N[C@@H](CO)C(=O)N[C@@H](CC(C)C)C(=O)N[C@@H](CC(=O)O)C(=O)N[C@H](C(=O)N1CCC[C@H]1C(=O)N[C@H](C(=O)NCC(=O)N[C@@H](CC(C)C)C(=O)N[C@@H](CC(C)C)C(=O)N[C@@H](CCC(N)=O)C(=O)N[C@H](C(=O)N[C@@H](CC(C)C)C(=O)N[C@@H](CC(C)C)C(=O)N[C@@H](CCC(=O)O)C(=O)N[C@@H](CCC(N)=O)C(=O)N[C@@H](C)C(=O)N[C@@H](CCCNC(=N)N)C(=O)N[C@@H](C)C(=O)N[C@@H](CCCNC(=N)N)C(=O)N[C@@H](C)C(=O)N[C@@H](C)C(=O)N[C@@H](CCCNC(=N)N)C(=O)N[C@@H](CCC(=O)O)C(=O)N[C@@H](CCC(N)=O)C(=O)N[C@@H](C)C(=O)N[C@H](C(=O)N[C@@H](CCCCNC(=O)COCCOCCNC(=O)COCCOCCNC(=O)CC[C@H](NC(=O)CC[C@H](NC(=O)CCCCCCCCCCCCCCCCCCC(=O)O)C(=O)O)C(=O)O)C(=O)N[C@@H](CC(N)=O)C(=O)N[C@@H](C)C(=O)N[C@@H](CCC(=O)O)C(=O)N[C@H](C(=O)N[C@@H](CC(C)C)C(=O)N[C@@H](C)C(=O)N[C@@H](CCC(=O)O)C(=O)N[C@H](C(N)=O)C(C)C)[C@@H](C)CC)[C@@H](C)O)[C@@H](C)CC)[C@@H](C)CC)C(C)C)C(C)C [SEQ ID NO: 6] (H-[NMeI]VLSLDVPIGLLQILLEQARARAAREQATK([AEEA-AEEA-γGlu-γGlu-C20 diacid])NAEILAEV-NH2)	prolonged dose-dependent reduction	4.0 ± 0.1	0.18 ± 0.004 g	0.012 ± 0.0008	42.6 ± 1.3	-7.0 ± 0.9	0.1 ± 0.3	89.1 ± 2.0	4.1 ± 0.1	0.18 ± 0.001	0.013 ± 0.0004	38 ± 0.5	-10.7 ± 0.5	-0.1 ± 0.3	79.3 ± 1.2	38.5	5.8	Multimodal	30.6	particle size / hydrodynamic radii (DLS) ([2]; 2000 µM, pH 7.5, five days incubation at 40°C with continuous shaking): formed larger particles and several species (multimodal)
CC[C@H](C)[C@H](NC)C(=O)N[C@H](C(=O)N[C@@H](CC(C)C)C(=O)N[C@@H](CO)C(=O)N[C@@H](CC(C)C)C(=O)N[C@@H](CC(=O)O)C(=O)N[C@H](C(=O)N1CCC[C@H]1C(=O)N[C@H](C(=O)NCC(=O)N[C@@H](CC(C)C)C(=O)N[C@@H](CC(C)C)C(=O)N[C@@H](CCC(N)=O)C(=O)N[C@H](C(=O)N[C@@H](CC(C)C)C(=O)N[C@@H](CC(C)C)C(=O)N[C@@H](CCC(=O)O)C(=O)N[C@@H](CCC(N)=O)C(=O)N[C@@H](C)C(=O)N[C@@H](CCCNC(=N)N)C(=O)N[C@@H](C)C(=O)N[C@@H](CCCNC(=N)N)C(=O)N[C@@H](C)C(=O)N[C@@H](C)C(=O)N[C@@H](CCCNC(=N)N)C(=O)N[C@@H](CCC(=O)O)C(=O)N[C@@H](CCC(N)=O)C(=O)N[C@@H](C)C(=O)N[C@@H](CCCCNC(=O)COCCOCCNC(=O)COCCOCCNC(=O)CC[C@H](NC(=O)CC[C@H](NC(=O)CCCCCCCCCCCCCCCCCCC(=O)O)C(=O)O)C(=O)O)C(=O)N[C@H](C(=O)N[C@@H](CC(N)=O)C(=O)NC(C)(C)C(=O)N[C@@H](CCC(=O)O)C(=O)N[C@H](C(=O)N[C@@H](CC(C)C)C(=O)N[C@@H](C)C(=O)N[C@@H](CCC(=O)O)C(=O)N[C@H](C(N)=O)C(C)C)[C@@H](C)CC)[C@@H](C)O)[C@@H](C)CC)[C@@H](C)CC)C(C)C)C(C)C [SEQ ID NO: 16] (H-[NMeI]VLSLDVPIGLLQILLEQARARAAREQAK([AEEA-AEEA-γGlu-γGlu-C20 diacid])TN[Aib]EILAEV-NH2)	reduce body weight; also recorded: prolonged dose-dependent reduction	4.4 ± 0.1	0.19 ± 0.003 g	0.013 ± 0.0004	44 ± 1.1	-5.6 ± 0.5	0.6 ± 0.3	91.1 ± 1.2	4.1 ± 0.1	0.19 ± 0.002	0.013 ± 0.0009	38.3 ± 0.9	-10.5 ± 0.6	-0.6 ± 0.3	79.9 ± 1.4	10.5	4.7	11.6%	4.7	
CCCC[C@H](NC(=O)[C@@H](NC(=O)[C@H](CCC(=O)O)NC(=O)C(C)(C)NC(=O)[C@H](CC(N)=O)NC(=O)[C@@H](NC(=O)[C@H](CCCCNC(=O)COCCOCCNC(=O)COCCOCCNC(=O)CC[C@H](NC(=O)CC[C@H](NC(=O)CCCCCCCCCCCCCCCCCCC(=O)O)C(=O)O)C(=O)O)NC(=O)[C@H](C)NC(=O)[C@H](CCC(N)=O)NC(=O)[C@H](CCC(=O)O)NC(=O)[C@H](CCCNC(=N)N)NC(=O)[C@H](C)NC(=O)[C@H](C)NC(=O)[C@H](CCCNC(=N)N)NC(=O)[C@H](C)NC(=O)[C@H](CCCNC(=N)N)NC(=O)[C@H](C)NC(=O)[C@H](CCC(N)=O)NC(=O)[C@H](CO)NC(=O)[C@H](CC(C)C)NC(=O)[C@H](CC(C)C)NC(=O)[C@@H](NC(=O)[C@H](CCC(N)=O)NC(=O)[C@H](CC(C)C)NC(=O)[C@H](CC(C)C)NC(=O)CNC(=O)[C@@H](NC(=O)[C@@H]1CCCN1C(=O)[C@@H](NC(=O)[C@H](CC(=O)O)NC(=O)[C@H](CC(C)C)NC(=O)[C@H](CO)NC(=O)[C@H](CC(C)C)NC(=O)[C@@H](NC(=O)[C@@H](NC)[C@@H](C)CC)C(C)C)C(C)C)[C@@H](C)CC)[C@@H](C)CC)[C@@H](C)O)[C@@H](C)CC)C(=O)N[C@@H](C)C(=O)N[C@@H](CCC(=O)O)C(=O)N[C@H](C(N)=O)C(C)C [SEQ ID NO: 215] (H-[NMeI]VLSLDVPIGLLQILLSQARARAAREQAK([AEEA-AEEA-γGlu-γGlu-C20 diacid])TN[Aib]EI[Nle]AEV-NH2)	prolonged dose-dependent reduction	4.3 ± 0.1	0.19 ± 0.002* ** g	0.012 ± 0.0005	40.5 ± 1.2	-8.7 ± 0.5	0.1 ± 0.5	85.5 ± 1.3	4.4 ± 0.03	0.18 ± 0.003	0.012 ± 0.0005	38.9 ± 1.1	-9.9 ± 0.7	-0.5 ± 0.3	81.8 ± 1.9	10.8	5.6	15.1%	5.9	body weight loss compared to SEQ ID NO: 16 ([1]; 10 nmol/kg, Fig. 5): relative higher body weight loss; relative body weight ([1]; listed as 215): reduce body weight
